Reference: patent US4361577A, “ω-Nor-cycloalkyl-13,14-dehydro-prostaglandins and process for their preparation” (Carlo Erba - S.p.A., priority 1974, dated 1982)

Experiments:
[1] = biological target: T1, 15-hydroxy-prostaglandin-dehydrogenase (Homo sapiens, UniProt P15428); experiment: inhibition of 15-hydroxy-prostaglandin-dehydrogenase drawn from human placenta, in vitro; type: biochemical
T1 construct: 15-hydroxy-prostaglandin-dehydrogenase drawn from human placenta; from tissue; host or cells: human placenta
T1 sequence (P15428 1-266): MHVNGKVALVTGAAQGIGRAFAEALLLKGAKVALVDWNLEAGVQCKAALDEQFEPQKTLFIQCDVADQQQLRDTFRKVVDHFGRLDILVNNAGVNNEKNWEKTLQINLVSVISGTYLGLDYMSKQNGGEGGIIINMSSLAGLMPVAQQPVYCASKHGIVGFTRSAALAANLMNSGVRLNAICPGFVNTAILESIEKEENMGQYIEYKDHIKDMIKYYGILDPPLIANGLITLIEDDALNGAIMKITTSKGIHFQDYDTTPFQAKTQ
Excerpt: The compounds of formula (I) furthermore inhibit the use of natural prostaglandins as substrate by the enzyme.

guinea pig ileum = guinea pig ileum test (spasmogenic activity); settings: relative to PGF2α = 1 (conventional value); in vitro, 35° C., Tyrode solution
Excerpt: (§1) The same compound (13,14-dehydro-17-cyclohexyl-20,19,18-trinor-PGF2α) was compared with PGF2α and with the olefinic analogue 5c,13t-9α,11α,15S-trihydroxy-20,19,18-trinor-17-cyclohexyl-prosta-5,13-dienoic acid (17-cyclohexyl-20,19,18-trinor-PGF2α) in the following in vitro tests: guinea pig ileum test, rat uterus test, rat stomach fundus. The results are reported in the following Table, wherein to the activity of PGF2 the conventional value of 1 was given in all the tests. The three tests relate to the determination of the spasmogenic activity.
The guinea pig ileum test consisted of a 10 ml thermostatic bath held at 35° C., containing the ileum of a male guinea pig, under 0.5 g traction, carboxygenated in a Tyrode solution; this was left for 30 minutes to stabilize before the compounds were tested. The response was recorded using a isotonic frontal lever, long enough to amplify the response 4.5 times.

rat uterus [2] = experiment: rat uterus test (spasmogenic activity); settings: for ratio Uterus/Ileum / ratio Uterus/Stomach Fundus: ratio of activities relative to PGF2α; for ratio Uterus/Ileum: rat uterus / guinea pig ileum; for ratio Uterus/Stomach Fundus: rat uterus / rat stomach fundus; for spasmogenic activity, Rat Uterus: relative to PGF2α = 1 (conventional value), in vitro, 29° C., oestrogenized rat uteri
Excerpt: as §1
The rat uterus test consisted of a 10 ml thermostatic bath held at 29° C., in which oestrogenized rat uteri under 0.5 g traction were carboxygenated in a Dejalon saline solution. The preparation was left to stabilize for 30 minutes before the compounds were tested. Response was measured using a isotonic frontal lever, long enough to amplify the response 4.5 times.

rat stomach fundus = rat stomach fundus test (spasmogenic activity); settings: relative to PGF2α = 1 (conventional value); in vitro, male Sprague-Dawley rats
Excerpt: as §1
The rat stomach fundus test was performed in the following manner: male albino rats of the Sprague-Dawley strain weighing 200-250 g were utilized. The stomach fundus strip was prepared according to Vane (J. R. Vane, Brit. J. Pharmacol. 12, 344, (1957)). The strip was suspended in a 10 ml organ bath containing Tyrode solution gassed with a mixture of O2 and CO2 (95:5%). The contractions of the strip were recorded using a isotonic frontal lever as in the preceding tests.

pregnant rat = experiment: luteolytic activity in the pregnant rat at the 9th-10th day of pregnancy; type: in vivo; settings: relative to PGF2α = 1 (conventional value)
Excerpt: The action selectivity of the 13,14-dehydro compounds on the miometrium and on the reproductive apparatus is also proven by the remarkable increase of the luteolytic activity in the pregnant rat at the 9th-10th day of pregnancy. In fact, if the conventional value of 1 is given to the luteolytic activity of PGF2α, the value of 30 is to be given to the luteolytic acitivity of 17-cyclohexyl-20,19,18-trinor-PGF2α, and the value of 200 to the luteolytic activity of 13,14-dehydro-17-cyclohexyl-20,19,18-trinor-PGF2α.

rat uterus [3] = experiment: antagonism of PGF2α on the rat uterus; settings: tested against PGF2α

Row | SMILES | Ki ([1]; inhibition with respect to PGE2) | Ki ([1]; inhibition with respect to PGF2α) | kind of inhibition ([1]; with respect to PGE2) | kind of inhibition ([1]; with respect to PGF2α) | spasmogenic activity, Guinea Pig Ileum (guinea pig ileum) | ratio Uterus/Ileum (rat uterus [2]) | ratio Uterus/Stomach Fundus (rat uterus [2]) | spasmogenic activity, Rat Uterus (rat uterus [2]) | spasmogenic activity, Rat Stomach Fundus (rat stomach fundus) | luteolytic activity (pregnant rat) | antagonism of PGF2α on the rat uterus (rat uterus [3])
1 | O=C(O)CCCC=CCC1C(O)CC(O)C1C#CC(O)CCC1CCCCC1 (stereo not drawn) [5c-9α,11α,15S-trihydroxy-20,19,18-trinor-17-cyclohexyl-prost-5-en-13-ynoic acid] | 468 µM | 152 µM | noncompetitive | partially competitive | 0.17 | 91 | 8 | 15.7 | 1.96 | 200 | able to antagonize PGF2α specifically and selectively
2 | O=C(O)CCCC=CCC1C(O)CC(O)C1C=CC(O)CCC1CCCCC1 (stereo not drawn) [17-cyclohexyl-20,19,18-trinor-PGF2α, 5c,13t-9α,11α,15S-trihydroxy-20,19,18-trinor-17-cyclohexyl-prosta-5,13-dienoic acid] | – | – | – | – | 0.60 | 5.4 | 1.7 | 3.23 | 1.86 | 30 | –
3 | CCCCC[C@H](O)/C=C/[C@@H]1[C@@H](C/C=C\CCCC(=O)O)[C@@H](O)C[C@H]1O [PGF2α] | – | – | – | – | – | 1 | 1 | – | – | 1 | –
